Patent publication US12478607B2, “Compounds useful for inhibiting BFL1 and their use in therapy” (CHILDREN'S HOSPITAL MEDICAL CENTER, priority 2019, dated 2025)
pEC50, pIC50: −log10 of the molar value.

Tests used:
BCL2A1 (purified A1) = BCL2A1 (purified A1) (Mus musculus (Mouse), UniProt Q07440); assay: differential scanning fluorimetry (DSF) thermal shift assay; assay type: binding, murine; conditions: 100 μM compound, 4.4 μM A1, triplicate; for ΔTm at 100 µM: read-out: Average Tm Shift
Source text: Thermal shift assays and fluorescence polarization competition assays were used to identify compounds that bind to BCL2A1/BFL1. Compounds were first tested for binding to BCL2A1 using differential scanning fluorimetry (DSF) thermal shift assays. DSF measures the midpoint temperature (Tm) for thermal denaturation of proteins; typically ligand binding stabilizes the protein fold, resulting in an increased Tm. During DSF experiments, all compounds that contributed to an increase in Tm that corresponded to at least three standard deviations from the mean were included in further assays.
100 μM of each compound was applied to purified A1 at 4.4 μM in triplicate. Sypro Orange dye was added at a final dilution of 1:1000 to protein- and compound-containing wells. An Applied Biosystems StepOnePlus was used to perform Differential Scanning Fluorimetry (DSF) by elevating the temperature from 20° C. to 99° C. and measuring fluorescence at every half degree C. Melting temperature was recorded as the maximum of the first derivative, indicating half of the protein population was unfolded.

BCL2A1 (A1) [1] = target: T1, BCL2A1 (A1) (Mus musculus (Mouse), UniProt Q07440); assay: dose-response fluorescence polarization (FP) assay, displacement of FITC-labeled mNOXA peptide; assay type: binding, murine; conditions: 3 μM A1, 375 nM FITC-labeled mNOXA, overnight 20° C., triplicate
T1 sequence (Q07440 whole entry): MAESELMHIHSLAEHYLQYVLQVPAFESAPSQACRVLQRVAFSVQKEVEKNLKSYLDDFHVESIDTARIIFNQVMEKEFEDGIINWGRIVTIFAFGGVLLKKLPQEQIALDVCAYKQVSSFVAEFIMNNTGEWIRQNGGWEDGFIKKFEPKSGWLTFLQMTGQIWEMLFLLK
Description: (§1) These assays were carried out using fluorescently labeled NOXA peptide which binds within the BH3-binding groove. The FP assay measures the tumbling rate of the labeled NOXA peptide as a proxy for inhibition of BH3 binding using a competition-based approach. When NOXA is bound to BCL2A1, its rate of tumbling is low (and FP is high), whereas an effective inhibitor compound will displace NOXA, causing a fast rate of tumbling (and low FP value). The initial single high dose assay was performed with each compound using […] with BCL2A1 and FITC-NOXA, to observe the relative inhibition of the BCL2A1-NOXA interaction. Small molecules that deviated by three or more standard deviations from the control mean towards inhibition of binding were selected for further analysis. These compounds and any that were three standard deviations or more above the thermal shift controls in the DSF assays were tested in an FP dose-response experiment. […] The average thermal shift (Tm shift) in the DSF assay, along with the percentage of bound Noxa peptide from the single high dose FP assay are given below in Table 2 for each of these compounds. The first two compounds in Table 2 are reference compounds.
(§2) Compounds were additionally tested for specificity of binding by displacement of FITC-labeled mouse NOXA (mNoxa; Peptide 2.0) peptide via fluorescence polarization assay (FP). FP assays were performed in two steps: single-point high-concentration compounds and dose response of fluorescence polarization hits. A1 was added at 3 μM to 100 μM of each compound in 20 mM Tris pH 7, 500 mM NaCl, 0.005% Tween-20 buffer. After addition of 375 nM labeled mNOXA, 96-well plates were incubated overnight at 20° C. in the dark to achieve equilibrium before fluorescence polarization was measured with a Biotek Synergy H2. Autofluorescent compounds and fluorescent quenching compounds were corrected via ratiometric correction as described by Shapiro et al., 2009.
Dose response curves were measured by adding 3 μM A1 to a serial two-fold dilution series of each compound ranging from 400 μM to 781 nM in 20 mM Tris pH 7, 500 mM NaCl, 0.005% Tween-20 buffer. Some compounds were further tested to assess the accuracy of these two-fold dilutions with serial 1.33-fold dilutions. A1, compounds, buffer and lastly, 375 nM FITC-labeled mNOXA were added to each well and incubated in the dark at 20° C. overnight to achieve equilibrium, followed by measurement of polarization. All dose responses were performed in triplicate.

BCL2A1 (A1) [2] = target: T1, BCL2A1 (A1); assay: single high-dose fluorescence polarization (FP) assay, BCL2A1-NOXA interaction; assay type: binding, murine; conditions: 100 μM compound, 3 μM A1, 375 nM labeled mNOXA
Description: as §1, §2

[3] = system: wild-type activated primary murine T cells (splenocytes); assay: in vitro apoptosis assay, wild-type activated primary murine T cells; assay type: cell-based; conditions: Mus musculus, T-cell, 24 hours, trypan blue live/dead count
Source text: (§3) We further tested the biological activity of the compounds using an in vitro apoptosis assay. Primary murine splenocyte cells were used as the model system. Single cell suspensions were generated from the spleens of either wild-type (WT) mice or mice having a genetic “knock-out” of the Bax and Bak genes, resulting in Bax/Bak deficient mice (Bax/Bak KO) which lack the core machinery of the intrinsic apoptotic pathway. Mice deficient in Bax/Bak are unable to undergo intrinsic apoptosis due to the lack of the pro-apoptotic Bax and Bak proteins in the pathway.
(§4) Purified cells were cultured on anti-CD3 coated (3 μg/mL, coated overnight, Biolegend, San Diego, CA) six-well plates in the presence of soluble anti-CD28 (2 μg/mL, Bio X Cell, West Lebanon, NH) and IL-2 (10 ng/mL, R&D Systems, Inc., Minneapolis, MN) in RPMI media (Life Technologies, Carlsbad, CA) for 24 hours at 37° C. Cells were then washed and cultured again in IL-2 (10 ng/mL) for 24 hours at 37° C. Cells were harvested and cultured for 24 hours on anti-CD3 coated 96-well plates at 500,000 cells per well with 2 μg/mL soluble anti-CD28, 10 ng/mL IL-2, 0.125 μg purified anti-mouse FasL (Biolegend, San Diego, CA), and varying concentrations of inhibitor compounds. Cells were then harvested and live and dead cells enumerated by trypan blue staining using the TC20 automated cell counter (Bio-Rad Laboratories, Des Plaines, IL).

[4] = system: T cells from Bax/Bak-deficient mice (Bax/Bak KO); assay: in vitro apoptosis assay, Bax/Bak-deficient murine T cells; assay type: cell-based, mouse
Source text: as §3, §4

Sequence of BCL2A1 (purified A1) (Q07440 whole entry): as above

| Compound | Average Tm Shift (BCL2A1 (purified A1)) | ΔTm at 100 µM (BCL2A1 (purified A1)) | pIC50 (BCL2A1 (A1) [1]) | % Bound Noxa (from high-dose FP) (BCL2A1 (A1) [2]) | pEC50 [3] | EC50 fold higher in Bax/Bak-deficient cells than in wild-type cells ([4]; Bax/Bak-deficient versus wild-type T cells) | pEC50 ([4]; Mus musculus, T-cell, Bax/Bak-deficient T cells, 24 hours, trypan blue live/dead count, read-out: EC50 of cell death) |
| --- | --- | --- | --- | --- | --- | --- | --- |
| Cc1cc(N=Nc2ccc(N=Nc3c(O)c(S(=O)(=O)O)cc4cc(S(=O)(=O)O)ccc34)cc2C)ccc1N=Nc1ccc2cc(S(=O)(=O)O)cc(S(=O)(=O)O)c2c1 [REF 1, reference compound] | 1.92 °C |  |  |  |  |  |  |
| CCN(CC)CCNc1ccc(C)c2sc3ccccc3c(=O)c12 [Compound 1.002] |  | 38.8 °C | 4.15 | 4.5% |  |  |  |
| O=C(COc1c(Cl)cc(Cl)c2ccccc12)NC1c2ccccc2Oc2ccccc21 [Compound 1.006] |  | 19.2 °C | 4.31 | 70.39% |  |  |  |
| Cc1ccc(NC(=O)c2cc3ccccc3c(N=Nc3cc(S(=O)(=O)O)ccc3O)c2O)c(C)c1 [REF 2, reference compound] | −30.75 °C |  |  | 1.2% |  |  |  |
| Cc1ccc(NCCNCC(C)(C)O)c2c(=O)c3ccccc3sc12 [Compound 1.005] |  | -0.85 °C | 3.48 |  |  |  |  |
| CCN(CCNc1ccc(C)c2sc3ccccc3c(=O)c12)CC(C)(C)O [Compound 1.003] |  | -1.43 °C | 3.99 | 51.13% |  |  |  |
| CCN(CC)CC(O)CNc1ccc(C)c2sc3ccccc3c(=O)c12 (stereo not shown) [Compound 1.001] |  | 0.49 °C | 4.31 | 41.48% | ~5.52 | about 10 fold | 4.52 to 4.70 |
| Cc1ccc(NCCNCC(O)CO)c2c(=O)c3ccccc3sc12 (stereo not shown) [Compound 1.004] |  | -0.6 °C | 3.52 |  |  |  |  |
